We go through one compound from patent US9120749B2, “Quinoline derivatives and MELK inhibitors containing the same” (ONCOTHERAPY SCIENCE, INC., priority 2010, dated 2015).

Structures can show the parent of a compound that is named as a salt.

By IC50 is commonly meant the concentration needed to halve the response being measured.

One assay has as its system 22Rv1 cells. As to the kind of experiment: Cell-based assay: anti-proliferative activity, Cell Counting Kit-8, 72 hours (22Rv1). To be noted: Homo sapiens. On the technique in general: Tetrazolium dyes change colour on reduction, which living cells bring about.
The next assay deals with T47D cells. Nature of the assay: Cell-based assay: anti-proliferative activity, Cell Counting Kit-8, 72 hours (T47D). To be noted: 72 hours, dihydrochloride. In outline:
(§1)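 IC50 values come from CCK-8 growth measurements taken 72 hours post-treatment of plated cells with test compounds. Expression of MELK across the panel was assessed through immunoblot of unfractionated lysates.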

A further assay has as its system A549 cells. Nature of the assay: Cell-based assay: anti-proliferative activity, Cell Counting Kit-8, 72 hours (A549). The conditions noted are these: 72 hours, dihydrochloride. In outline: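 Cell Counting Kit-8 read-out of A549 growth after 72 hours of inhibitor exposure, cells plated in 96-well format. Values reported as IC50.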
For a further assay, the system named is DU4475 cells. As to the kind of experiment: Cell-based assay: anti-proliferative activity, Cell Counting Kit-8, 72 hours (DU4475). The conditions noted are these: dihydrochloride.
The target in another assay is MELK (Homo sapiens, UniProt Q14680). Nature of the assay: Kinase assay: MELK activity, phosphorylation of FITC-labeled histone H3 peptide measured by IMAP fluorescence polarization. It is filed as biochemical. To be noted: dihydrochloride; read-out: IC50 (μM) (kinase assay). In outline: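 Substrate is FITC-labeled histone H3 peptide. Compounds come from a 12.5 mM DMSO stock, diluted so assay DMSO is 1%. The stop step adds threefold-volume progressive binding solution, followed by 0.5 h at room temperature and an FP read.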

For a further assay, the system named is HT-1197 cells. As to the kind of experiment: Cell-based assay: anti-proliferative activity, Cell Counting Kit-8, 72 hours (HT-1197, negative control without MELK expression). The conditions noted are these: HT1197 cells (negative control, no MELK expression), 72 hours; dihydrochloride. In outline: as §1

Chain of MELK (Q14680 whole entry, looked up): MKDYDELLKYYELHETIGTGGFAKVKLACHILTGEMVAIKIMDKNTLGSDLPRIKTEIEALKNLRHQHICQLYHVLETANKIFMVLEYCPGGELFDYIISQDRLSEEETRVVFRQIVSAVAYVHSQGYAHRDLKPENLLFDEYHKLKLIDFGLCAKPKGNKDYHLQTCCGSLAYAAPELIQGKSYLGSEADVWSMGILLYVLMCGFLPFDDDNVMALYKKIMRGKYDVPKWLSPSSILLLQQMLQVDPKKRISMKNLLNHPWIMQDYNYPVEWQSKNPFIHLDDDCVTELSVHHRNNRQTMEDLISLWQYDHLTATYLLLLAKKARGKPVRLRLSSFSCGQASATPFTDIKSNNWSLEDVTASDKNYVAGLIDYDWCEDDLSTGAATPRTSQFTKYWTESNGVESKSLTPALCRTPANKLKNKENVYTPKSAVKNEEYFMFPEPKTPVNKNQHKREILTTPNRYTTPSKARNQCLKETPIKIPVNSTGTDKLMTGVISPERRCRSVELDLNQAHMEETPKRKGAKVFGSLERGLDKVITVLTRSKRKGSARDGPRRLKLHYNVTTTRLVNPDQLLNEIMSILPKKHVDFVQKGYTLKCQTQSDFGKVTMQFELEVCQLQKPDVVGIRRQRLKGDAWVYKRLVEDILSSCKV

With `CC(=O)c1cnc2ccc(-c3cc(F)c(O)c(Cl)c3)cc2c1N[C@H]1CC[C@H](CCN(C)C)CC1` [Example 742, 1-(6-(3-chloro-5-fluoro-4-hydroxyphenyl)-4-(1R,4R)-4-(2-(dimethylamino)ethyl)cyclohexylamino)quinolin-3-yl)ethanone dihydrochloride], the half-inhibitory concentration (IC50) was found to be 0.094 µM in the assay on 22Rv1 cells; 0.034 µM in the assay with T47D cells; 0.078 µM in the assay with A549 cells; 0.063 µM in the assay with DU4475 cells; 0.0044 µM on MELK; 1.7 µM in the assay on HT-1197 cells.
